Results from ChEMBL document CHEMBL5223108, “Aiming to improve binding of porphyrin diphenyl guanidinium conjugates to guanine-quadruplexes: When size matters” (Bioorg Med Chem Lett, 2022).
The source made the active and inactive calls. The rule behind the calls is not given here.

Assays:
Quadruplex DNA [1] = assay: Binding affinity to human c-KIT1 G4 quadruplex DNA assessed as change in melting temperature at 10 uM by UV analysis; format: nucleic-acid assay
Quadruplex DNA [2] = assay: Binding affinity to human c-KIT2 G4 quadruplex DNA assessed as change in melting temperature at 10 uM by UV analysis; format: nucleic-acid assay
Quadruplex DNA [3] = assay: Binding affinity to human 22AG_Na G4 quadruplex DNA assessed as change in melting temperature at 10 uM by UV analysis; format: nucleic-acid assay
Quadruplex DNA [4] = assay: Binding affinity to c-KIT1 G4 quadruplex DNA (unknown origin) assessed as change in melting temperature at 1:2 G4:ligand ratio by UV analysis (reference value: 66.5 degreeC); format: nucleic-acid assay
Quadruplex DNA [5] = assay: Binding affinity to c-KIT2 G4 quadruplex DNA (unknown origin) assessed as change in melting temperature at 1:2 G4:ligand ratio by UV analysis (reference value: 59.1 degreeC); format: nucleic-acid assay
Quadruplex DNA [6] = assay: Binding affinity to 22AG_K G4 quadruplex DNA (unknown origin) assessed as change in melting temperature at 1:2 G4:ligand ratio by UV analysis (reference value: 60.1 degreeC); format: nucleic-acid assay
Quadruplex DNA [7] = assay: Binding affinity to KRAS G4 quadruplex DNA (unknown origin) assessed as change in melting temperature at 1:2 G4:ligand ratio by UV analysis (reference value: 48.7 degreeC); format: nucleic-acid assay
Quadruplex DNA [8] = assay: Binding affinity to 22AG_Na G4 quadruplex DNA (unknown origin) assessed as change in melting temperature at 1:2 G4:ligand ratio by UV analysis (reference value: 55.9 degreeC); format: nucleic-acid assay
Quadruplex DNA [9] = assay: Binding affinity to 23TA G4 quadruplex DNA (unknown origin) assessed as change in melting temperature at 1:2 G4:ligand ratio by UV analysis (reference value: 59.5 degreeC); format: nucleic-acid assay
Salmonidae = assay: Binding affinity to salmon testes […] DNA assessed as change in melting temperature at 1:2 […] ratio by UV analysis (reference value: 66.6 degreeC)
Quadruplex DNA [10] = assay: Binding affinity to c-KIT1 G4 quadruplex DNA (unknown origin) by CD spectroscopy analysis; format: nucleic-acid assay
Quadruplex DNA [11] = assay: Binding affinity to 22AG_Na G4 quadruplex DNA (unknown origin) by CD spectroscopy analysis; format: nucleic-acid assay

## N=C(N)Nc1ccc(Oc2ccc(NC(=N)NC(=O)Nc3ccc(-c4c5nc(c(-c6ccccc6)c6ccc([nH]6)c(-c6ccccc6)c6nc(c(-c7ccccc7)c7ccc4[nH]7)C=C6)C=C5)cc3)cc2)cc1
Quadruplex DNA [1]
  ΔTm: 2.2 °C
Quadruplex DNA [2]
  ΔTm: > 20 °C
Quadruplex DNA [3]
  ΔTm: -2.7 °C

## N=C(N)Nc1ccc(Sc2ccc(NC(=N)NC(=O)Nc3ccc(-c4c5nc(c(-c6ccccc6)c6ccc([nH]6)c(-c6ccccc6)c6nc(c(-c7ccccc7)c7ccc4[nH]7)C=C6)C=C5)cc3)cc2)cc1
Quadruplex DNA [1]
  ΔTm: 1 °C
Quadruplex DNA [2]
  ΔTm: > 20 °C
Quadruplex DNA [3]
  ΔTm: -4.9 °C

## N=C(N)Nc1ccc(S(=O)(=O)c2ccc(NC(=N)NC(=O)Nc3ccc(-c4c5nc(c(-c6ccccc6)c6ccc([nH]6)c(-c6ccccc6)c6nc(c(-c7ccccc7)c7ccc4[nH]7)C=C6)C=C5)cc3)cc2)cc1
Quadruplex DNA [4]
  ΔTm: -7.84 °C
Quadruplex DNA [5]
  ΔTm: -1.49 °C
Quadruplex DNA [6]
  ΔTm: -1.05 °C
Quadruplex DNA [7]
  ΔTm: 2.91 °C
Quadruplex DNA [8]
  ΔTm: 10.2 °C
Quadruplex DNA [9]
  ΔTm: 2.42 °C
Salmonidae
  ΔTm: 0.02 °C
Quadruplex DNA [10]
  Activity: inactive
Quadruplex DNA [11]
  Activity: inactive
